In general, Kd refers to the constant that tells how readily two partners part at equilibrium. A lower Kd goes with a tighter complex.

Assay [1] deals with coronin 1. The assay is described as follows: Western blotting of coronin 1 protein levels in RBL cells. Type of assay: cell-based, Rat. The note with it: 2 μg/ml, RBL cells. Here is the method:
buffer with 0.2% SDS containing protease and phosphatase inhibitors (Roche) at 4° C., followed by protein determination (BCA, Pierce) and SDS-PAGE with equal protein amounts transferred onto nitrocellulose and probed using antibodies against the indicated proteins (actin and coronin 1) followed by HRP-labeled secondary antibodies and developed using an enhanced chemi-luminescence imager (Fuji) (FIG. 3C).
(In general: In western blotting, separated proteins are transferred to a membrane and probed.)

Assay [2] relates to RBL cells. Nature of the assay: Cell viability by live-dead staining (cytotoxicity), flow cytometry. Type of assay: cell-based, Rat. The conditions noted are these: Rattus norvegicus, RBL, cell viability via live/dead staining, 48-65 h, read-out: EC50 Toxicity. The method, then:
(§1) RBL cells expressing GFP under coronin 1 promoter and optionally with RBL cells expressing RFP under CMV promoter were mixed in equal numbers and incubated with the compounds at indicated concentrations for 48-65 h and analyzed by flow cytometry for alteration in coronin 1 promoter (GFP fluorescence), CMV promoter (RFP fluorescence) values. In addition, the cells were labelled with live-dead marker for assessing cell viability status by flow cytometry. Cycloheximide (CHX) serves as positive control and DMSO serves as negative controls. Effective Concentration (EC50) values for coronin 1 promoter inhibition via GFP fluorescence analysis, non-specific promoter inhibition via CMV promoter driven-RFP fluorescence analysis and cell viability via live/dead staining as a measure for toxicity in flow cytometry for compounds (10-22 and 50a-65a) are shown in Table 6 and Table 7. Based on the EC50 analysis of the inhibition of coronin 1 promoter driven GFP fluorescence the (4S,7R)-configurated eutomers were identified (Structures FIG. 9A-C). This is exemplified for compounds containing two stereocenters by eutomers 11c and 13a. […] Subsequent EC50 evaluations (Table 7) were performed with compound 13a as standard for relative potency normalized to a value of 1.00 (relative potency calculated as [EC50 GFP inhibition 13a]/[EC50 GFP inhibition compound of interest]).
(In general: In flow cytometry, cells or beads pass a laser one at a time.)

The target of assay [3] is T1, BRD3 BD1 (Homo sapiens, UniProt Q15059).
T1 construct: T7 phage display (bromodomain fused to phage); purchased Eurofins (bromoscan service); host or cells: E. coli host derived from BL21, T7 phage
The assay is described as follows: Bromoscan (Eurofins) binding: BRD3 BD1. The method, then:
(§2) Following the initial data from TPP, to further confirm the interaction of compound with BRD3, an in-vitro assay system named bromoscan (Eurofins) was employed to analyse the affinity of the (4S,7R)-configurated compound 12e against the two bromodomains of BRD3.
T7 phage strains displaying bromodomains were grown in 24-well blocks in an E. coli host derived from the BL21 strain. E. coli were grown to log-phase and infected with T7 phage from a frozen stock (multiplicity of infection=0.4) and incubated with shaking at 32° C. until lysis (90-150 minutes). The lysates were centrifuged (5,000×g) and filtered (0.2 μm) to remove cell debris. Streptavidin-coated magnetic beads were treated with biotinylated small molecule or acetylated peptide ligands for 30 minutes at room temperature to generate affinity resins for bromodomain assays. The liganded beads were blocked with excess biotin and washed with blocking buffer (SeaBlock (Pierce), 1% BSA, 0.05% Tween 20, 1 mM DTT) to remove unbound ligand and to reduce non-specific phage binding. […] Test compounds were prepared as 1000× stocks in 100% DMSO. Kds were determined using an 11-point 3-fold compound dilution series with one DMSO control point. All compounds for Kd measurements are distributed by acoustic transfer (non-contact dispensing) in 100% DMSO. […] The bromodomain concentration in the eluates was measured by qPCR. […]

Assay [4] deals with T2, BRD3 (Rattus norvegicus, UniProt D3ZWU1).
T2 construct: endogenous in cells; host or cells: RBL (rat basophil leukemia) cells
The assay is described as follows: Thermal Proteome Profiling in RBL cells: BRD3. Type of assay: binding. The note with it: 6 μM. Here is the method: To identify the target of the coronin 1 modulatory compounds, Thermal Proteome Profiling (TPP), a methodology based on the property of proteins to alter their thermal stability upon interactions with small molecules (Savitski, M. M., et al., Science, 2014. 346(6205): p. 1255784), was employed. To that end, Rat Basophil Leukemia (RBL) cells were incubated with the compound 12e followed by gradient thermal denaturation (37/41/44/47/50/53/56/59/63/67 degree C.) and mass spectrometric assessment of proteins that get either stabilized or destabilized upon interacting with the compound performed. […]
Thermal proteome profiling was performed as described (Savitski, M. M., et al., Science, 2014. 346(6205): p. 1255784). In brief, RBL cells (50 millions/condition) were incubated with the vehicle DMSO or the compound 12e at 6, 3 or 0 μM concentration for a period of 1 h at the end of which, the cells were washed in ice cold PBS, counted and subjected to thermal denaturation (37/41/44/47/50/53/56/59/63/67° C.) for 3 minutes, lysed by freeze thawing in liquid nitrogen and supernatant containing the soluble proteins separated by centrifugation at 100,000 g for 30 minutes. Equal volumes of the supernatant were taken, subjected to tryptic digestion and labelling with 10 plex-TMT (Thermo Fisher) and the labelled peptides analyzed and quantitated using mass spectrometry (FIG. 13).

The test system of assay [5] is coronin 1 promoter. Nature of the assay: EC50 analysis for coronin 1 promoter driven GFP inhibition by flow cytometry in RBL cells. In kind it is cell-based. The conditions noted are these: for EC50: RBL, RBL cells, 48-65 h, flow cytometry. In short, it runs like this: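 RBL cells carrying coronin 1 promoter–GFP, mixed with CMV promoter–RFP cells, exposed to compounds 48–65 h and analyzed by flow cytometry with live/dead staining. EC50 derived from GFP inhibition, with RFP and viability as nonspecific and toxicity counter-reads; cycloheximide and DMSO as controls, relative potency normalized to a reference compound.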

In assay [6] the target is T3, BRD3 BD2 (Homo sapiens, UniProt Q15059).
T3 construct: T7 phage display (bromodomain fused to phage); purchased Eurofins (bromoscan service); host or cells: E. coli host derived from BL21, T7 phage
Nature of the assay: Bromoscan (Eurofins) binding: BRD3 BD2. The method, then:
as §2
T7 phage strains displaying bromodomains were grown in 24-well blocks in an E. coli host derived from the BL21 strain. E. coli were grown to log-phase and infected with T7 phage from a frozen stock (multiplicity of infection=0.4) and incubated with shaking at 32° C. until lysis (90-150 minutes). The lysates were centrifuged (5,000×g) and filtered (0.2 μm) to remove cell debris. Streptavidin-coated magnetic beads were treated with biotinylated small molecule or acetylated peptide ligands for 30 minutes at room temperature to generate affinity resins for bromodomain assays. The liganded beads were blocked with excess biotin and washed with blocking buffer (SeaBlock (Pierce), 1% BSA, 0.05% Tween 20, 1 mM DTT) to remove unbound ligand and to reduce non-specific phage binding. […] Test compounds were prepared as 1000× stocks in 100% DMSO. Kds were determined using an 11-point 3-fold compound dilution series with one DMSO control point. All compounds for Kd measurements are distributed by acoustic transfer (non-contact dispensing) in 100% DMSO. The compounds were then diluted directly into the assays such that the final concentration of DMSO was 0.09%. All reactions performed in polypropylene 384-well plates. Each was a final volume of 0.02 ml. The assay plates were incubated at room temperature with shaking for 1 hour and the affinity beads were washed with wash buffer (1×PBS, 0.05% Tween 20). The beads were then resuspended in elution buffer (1×PBS, 0.05% Tween 20, 2 μM non-biotinylated affinity ligand) and incubated at room temperature with shaking for 30 minutes. The bromodomain concentration in the eluates was measured by qPCR. The bromoscan analysis was done at Eurofins (FIG. 15).

Assay [7] concerns human peripheral blood mononuclear cells. The assay is described as follows: Mixed Lymphocyte Reaction, tritiated-thymidine uptake. Type of assay: cell-based. The conditions noted are these: human PBMCs. The method, then:
For assessment of the suppression of alloresponses by coronin 1 modulators using the MLR methodology, heparinized or EDTA treated blood or buffy coat from two healthy volunteers were enriched for […] using the standard Histopaque 1.077 gradient centrifugation methodology as detailed above. Post enrichment, one of the donors PBMCs was considered as “responders” and the other as “stimulators”. The “stimulators” were treated with mitomycin to prevent proliferation while the “responders” PBMCs were left untreated. The stimulator and responder PBMCs were washed extensively with plain RPMI and subsequently counted and seeded in 96 well plate at a density of 0.1 million cells/well each (responders plus stimulators=0.2 million cells/well) in a volume of 200 μl RPMI-1640 (Sigma) containing 1× penicillin and streptomycin (Gibco), 2 mM L-glutamine (Gibco) and 10% heat inactivated FCS (PAA) along with the vehicle (DMSO) or coronin 1 expression inhibitor at indicated concentrations. Cells were incubated in a 37° C. humidified incubator with a 5% CO2 for five days with the expression inhibitor and at the end of which 0.5 μCi of tritiated thymidine was added to all wells and further incubated for 20 h followed by harvesting on a GF/C filter and measuring the DNA-incorporated counts using a Packard instrument as a measure of immune responses (FIG. 10).

Assay [8] relates to imiquimod-induced psoriasis. The assay is described as follows: Imiquimod-induced mouse model for psoriasis. Type of assay: in vivo, mice (Balb/c). The conditions noted are these: 50 mg/kg body weight, twice daily, topical route, day 4. Here is the method:
Wild type mice (Balb/c strain, 8-12 weeks), were age and sex matched. The dorsal skin was shaved with a trimmer on an area of ˜2 cm^2 and subjected to topical application of 5% imiquimod cream (Aldara) starting from day 1 and continued for up to 7 days in the morning. For compound administration, mice were applied topically with the compound, twice a day starting 48 hours before the first Imiquimod application and all along of the experiment up to day 7. In the morning, compound was applied 2 h prior to the imiquimod application (FIG. 12A). Mice were scored every day for the inflammatory lesion and general health status as follows: […]

Assay [9] deals with CMV promoter. Nature of the assay: EC50 analysis for CMV promoter driven RFP inhibition (non-specific activity) by flow cytometry in RBL cells. Type of assay: cell-based, cytomegalovirus. The note with it: 48-65 h, read-out: EC50 RFP alteration. Here is the method:
as §1

The structures appear in SMILES notation.

T3 sequence (Q15059 306-415 limits assumed): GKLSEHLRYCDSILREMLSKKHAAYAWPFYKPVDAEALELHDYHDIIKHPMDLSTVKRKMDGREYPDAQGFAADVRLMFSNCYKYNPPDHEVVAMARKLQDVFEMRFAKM
T1 sequence (Q15059 34-140 limits assumed): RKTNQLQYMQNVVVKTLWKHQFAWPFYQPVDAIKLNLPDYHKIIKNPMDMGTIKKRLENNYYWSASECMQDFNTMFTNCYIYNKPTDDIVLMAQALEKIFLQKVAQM
T2 sequence (D3ZWU1 1-725): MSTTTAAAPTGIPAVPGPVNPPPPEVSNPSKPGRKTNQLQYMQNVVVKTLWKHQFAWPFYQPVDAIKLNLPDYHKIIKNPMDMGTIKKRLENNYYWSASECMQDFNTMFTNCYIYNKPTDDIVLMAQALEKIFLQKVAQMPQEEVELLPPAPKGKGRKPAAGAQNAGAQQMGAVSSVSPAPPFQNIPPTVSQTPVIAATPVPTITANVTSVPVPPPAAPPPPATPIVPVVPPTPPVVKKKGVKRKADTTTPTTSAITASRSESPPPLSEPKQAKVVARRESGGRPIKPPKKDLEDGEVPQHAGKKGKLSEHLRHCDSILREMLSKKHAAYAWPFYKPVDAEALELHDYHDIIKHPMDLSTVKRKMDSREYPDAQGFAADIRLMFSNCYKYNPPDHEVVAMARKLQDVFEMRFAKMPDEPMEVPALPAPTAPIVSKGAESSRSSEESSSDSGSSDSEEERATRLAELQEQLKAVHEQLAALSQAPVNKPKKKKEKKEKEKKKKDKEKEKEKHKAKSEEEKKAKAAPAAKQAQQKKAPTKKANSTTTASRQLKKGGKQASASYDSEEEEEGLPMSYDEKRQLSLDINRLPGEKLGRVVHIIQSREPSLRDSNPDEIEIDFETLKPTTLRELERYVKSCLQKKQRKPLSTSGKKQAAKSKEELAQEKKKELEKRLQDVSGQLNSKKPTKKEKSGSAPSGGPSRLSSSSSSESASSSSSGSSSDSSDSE

Turning to `COc1ccccc1[C@H]1CC(=O)C2=C(C1)NC(C)=C(C(=O)OC[C@@H]1CCCO1)[C@H]2c1cccc(O)c1` [12e, tetrahydro-2-furanylmethyl (4S, 7R)-4-(3-hydroxyphenyl)-7-(2-methoxyphenyl)-2-methyl-5-oxo-1,4,5,6,7,8-hexahydro-3-quinolinecarboxylate], the “coronin 1 depletion by Western blot” value in assay [1] is “showed coronin 1 depletion”. Moreover, the EC50 was above 20000 nM in assay [2] and 70 nM in assay [5]. Also, the values for the Kd in assay [3] and in assay [6] were around 200 nM and around 10 nM, respectively. Also, the “increase of thermal denaturation of BRD3” value in [4] is “over four degrees Celsius”. The “relative affinity for BRD3 bromodomains BD1 and BD2” value in assay [6] is listed as “higher affinity for the BD2 domain”. Besides, the “Mixed Lymphocyte Responses (tritiated-thymidine uptake)” value in assay [7] is listed as “inhibition”.
For the molecule `COc1ccccc1[C@H]1CC(=O)C2=C(C1)NC(C)=C(C(=O)OC1CCOCC1)[C@H]2c1cccc(O)c1` [13a, tetrahydro-2H-pyran-4-yl (4S, 7R)-4-(3-hydroxyphenyl)-7-(2-methoxyphenyl)-2-methyl-5-oxo-1,4,5,6,7,8-hexahydro-3-quinolinecarboxylate], in [1], the “coronin 1 depletion by Western blot” value is on record as “showed coronin 1 depletion”. Moreover, the EC50 was above 2500 nM in assay [2], 65 nM in assay [5] and above 2500 nM in assay [9]. The Kd in assay [3] came to 150 nM; in assay [6], 4 nM. The “rel. potency GFP inhibition” value in [5] ([EC50 GFP inhibition 13a]/[EC50 GFP inhibition compound of interest], 13a = 1.00) turned out to be 1.00. Moreover, the “relative affinity for BRD3 bromodomains BD1 and BD2” value in assay [6] is “higher affinity for the BD2 domain”. Moreover, the “disease score (erythema, surface area affected, psoriatic plaque formation)” value in [8] was “suppresses autoimmune-inflammatory disease severity”.

These data come from US20260102387A1, “IMMUNOSUPPRESSIVE COMPOUNDS” (UNIVERSITÄT BASEL, priority 2022, published 2026).
